# pIC50: −log10 of the molar value.
# Experiments:
# [1] = system: murine L1210 leukaemic cells; test: L1210 in vitro growth inhibition; assay type: cell-based; conditions: Mus musculus, drug added to cultures over 70 hours, 50% reduction of counted leukaemia cells, below 1000 nM considered significant, read-out: L1210 in vitro ID50
# Method: L1210 in vitro--The culture methods used are described in detail elsewhere (B. C. Baguley and R. Nash, Europ. J. Cancer, 17, 671-679 (1981)). Acceptable reproducibility of data depends critically upon the maintenance of optimal culture conditions. L1210 cells were initially obtained from Dr I. Wodinsky, Arthur D. Little Inc., Boston, U.S.A., under the auspices of the National Cancer Institute.
# Values below 1000 nM are considered significant.
# P388 tumour cells = test: P388 in vivo, life span extension; parameters: species or system mice (F1 hybrid, DBA-2 male x C57 B1 female); key to P388 in vivo Active: Y: implies a significant value of drug activity at the stated dose; N: implies no or not statistically significant activity; conditions: for P388 in vivo ILS (percentage increase in life span): at optimal dose, days 1, 5 and 9, vs controls (average survival 11 days), greater than 20% statistically significant; for P388 in vivo Active: at the stated (optimal) dose
# Method: P388 in vivo--Tumour P388 cells were obtained as frozen stocks from Mason Research Inc., U.S.A. and passaged intraperitoneally according to standard methods (Cancer Chemother. Rep. 3, Part 3, page 9, 1972) in DBA-2 mice of either sex. Groups of six Fl hybrid mice (DBA-2 male x C57 B1 female, g weight 20±1 g) were injected intraperitoneally with 10^6 cells on day 0.
# O.D.--optimal drug dose, in milligrams per kilogram, administered as a solution in 0.1 ml of 30% v/v ethyl alcohol in water on days 1, 5 and 9 after tumour inoculation. The drug is administered as a soluble acid addition salt.
# ILS--percentage increase in life span of treated animals over that of groups of control animals injected with tumour alone. The average survival of control mice was 11 days. Values of ILS greater than 20% are considered statistically significant.
# Y. implies a significant value of drug activity at the stated dose.
# N. implies no or not statistically significant activity.
# Aerobacter aerogenes = test: Antibacterial activity
# Streptococcus faecalis = test: Antibacterial activity
# Alcaligenes viscolatis = test: Antibacterial activity
# Staphylococcus aureus = test: Antibacterial activity
# Neisseria catarrhalis = test: Antibacterial activity
# Xanthomonas phaseoli = test: Antibacterial activity
# [2] = system: Micrococcus lysodeikticus; test: Antibacterial activity
# Sarcina lutea = test: Antibacterial activity
# [3] = Reversed phase partition chromatography (lipophilic-hydrophilic balance); assay type: physicochemical; conditions: linearly related to partition coefficients in 1-octanol/water, read-out: Rm
# Text: Rm=a measure of the compound's lipophilic-hydrophilic balance from reversed phase partition chromatography. Rm is linearly related to partition coefficients obtained in the 1-octanol/water system.
# Bacillus subtilis = test: Antibacterial activity
# Escherichia coli = test: Antibacterial activity
# [4] = cited from earlier work
SMILES,pIC50 [1],P388 in vivo ILS (percentage increase in life span) (P388 tumour cells) [%],P388 in vivo Active (P388 tumour cells),chromatographic logP [3],other results
CN(C)CCNC(=O)c1cccc2c(N)c3ccc([N+](=O)[O-])cc3nc12 [Compound 16],10.30,23,Y,–,–
CN(C)CCNC(=O)c1cccc2c(N)c3ccccc3nc12 [Compound 4],–,98,Y,-1.11,Antibacterial activity (Aerobacter aerogenes): active; Antibacterial activity (Streptococcus faecalis): active; Antibacterial activity (Alcaligenes viscolatis): active; Antibacterial activity (Staphylococcus aureus): active; Antibacterial activity (Neisseria catarrhalis): active; Antibacterial activity (Xanthomonas phaseoli): active; Antibacterial activity [2]: active; Antibacterial activity (Sarcina lutea): active; Antibacterial activity (Bacillus subtilis): active; Antibacterial activity (Escherichia coli): active
CN(C)CCNC(=O)c1cccc2c(N)c3cccc(Cl)c3nc12 [Compound 15],8.54,81,Y,–,–
CN(C)CCNC(=O)c1cccc2c(N)c3ccc(N)cc3nc12 [Compound 17],7.46,58,Y,–,–
NCCNC(=O)c1cccc2c(N)c3ccccc3nc12 [Compound 8],6.38,71,Y,-1.18,–
CNc1c2ccccc2nc2c(C(=O)NCCN(C)C)cccc12 [Compound 3],7.82,53,Y,-1.11,–
CN(C)CCNC(=O)c1cc(N)cc2c(N)c3ccccc3nc12 [Compound 10],6.79,28,Y,–,–
COc1cccc2c(N)c3cccc(C(=O)NCCN(C)C)c3nc12 [Compound 14],8.37,81,Y,-1.06,–
CN(C)CCNC(=O)c1cccc2c(N)c3cc(N)ccc3nc12 [Compound 21],7.32,80,Y,-1.64,–
CN(C)CCCNC(=O)c1cccc2c(N)c3ccccc3nc12 [Compound 5],6.80,0,N,-0.93,–
CN(C)CCNC(=O)c1cccc2c(N)c3cccc([N+](=O)[O-])c3nc12 [Compound 11],8.89,39,Y,–,–
"Cc1c2ccccc2nc2c(C(=O)NCCN(C)C)cccc12 [Compound 2, N-(2-dimethylaminoethyl)-9-methylacridine-4-carboxamide]",7.18,14,N,-0.3,–
CN(C)CCNC(=O)c1cc([N+](=O)[O-])cc2c(N)c3ccccc3nc12 [Compound 9],6.50,25,Y,–,–
CN(C)CCNC(=O)c1cccc2c(N)c3cccc(N)c3nc12 [Compound 12],7.74,58,Y,–,–
Cc1cccc2c(N)c3cccc(C(=O)NCCN(C)C)c3nc12 [Compound 13],9.48,107,Y,-1.02,–
COc1ccc2c(N)c3cccc(C(=O)NCCN(C)C)c3nc2c1 [Compound 19],6.82,17,N,–,–
Cc1ccc2c(N)c3cccc(C(=O)NCCN(C)C)c3nc2c1 [Compound 18],7.26,20,N,-0.82,–
"CN(C)CCNC(=O)c1cccc2c(N)c3cc([N+](=O)[O-])ccc3nc12.Cl.Cl [Compound 20, N-(2-dimethylaminoethyl)-9-amino-7-nitroacridine-4-carboxamide dihydrochloride]",6.98,34,Y,-1.29,–
CCN(CC)CCNC(=O)c1cccc2c(N)c3ccccc3nc12 [Compound 7],8.26,70,Y,-0.67,–
CCN(CC)CCCC(C)Nc1c2ccc(Cl)cc2nc2ccc(OC)cc12 (centres unmarked) [mepacrine],–,–,–,–,Local clinical cytostatic effects [4]: Local clinical cytostatic effects
Cc1ccc2nc3c(C(=O)NCCN(C)C)cccc3c(N)c2c1 [Compound 22],6.22,0,N,–,–
COc1ccc2nc3c(C(=O)NCCN(C)C)cccc3c(N)c2c1 [Compound 23],6.29,4,N,–,–
Nc1c2ccccc2nc2c(C(=O)NCCNCCO)cccc12 [Compound 6],7.11,80,Y,-1.06,–
CN(C)CCNC(=O)c1cccc2cc3ccccc3nc12 [Compound 1],6.98,91,Y,-0.2,–
CN(C)CCNC(=O)c1cccc2c(N)c3cc(Cl)ccc3nc12 [Compound 24],6.14,8,N,–,–
